Data on four compounds can be found in patent US6710045B2, “Heterocyclic fluoroalkenyl thioethers and the use thereof as pesticides (IV)” (priority 2003, dated 2004).

Series [1] is described as follows: logP determination by HPLC (EEC Directive 79/831 Annex V.A8). As to conditions: for chromatographic logP: pH 2.3, HPLC gradient method, acetonitrile/0.1% aqueous phosphoric acid. Type of series: physicochemical. How it is done:
The logP values were determined in accordance with EEC Directive 79/831 Annex V.A8 by HPLC (gradient method, acetonitrile/0.1% aqueous phosphoric acid).

Series [2] deals with Meloidogyne incognita egg/larvae. Kind of series: Meloidogyne test (gall formation on lettuce roots). It is filed as in vivo. As to conditions: active compound concentration 20 ppm; after 14 days. The protocol: Containers are filled with sand, solution of active compound, Meloidogyne incognita egg/larvae suspension and lettuce seeds. The lettuce seeds germinate and the plants develop. On the roots, galls are formed.
After the desired period of time, the nematicidal action is determined in % using gall formation as a measure. 100% means that no galls were found; 0% means that the number of galls on the treated plants corresponds to that of the untreated control.

In series [3] the test system is larvae of the mustard beetle (Phaedon cochleariae). In words: Phaedon larvae test (dipped cabbage leaves). The settings on record: active compound concentration 0.1%; after 7 days.

Structures are written as SMILES.

Usually chromatographic logP stands for a lipophilicity value derived from retention on a column. Higher therefore signals higher lipophilicity. `FC(F)=C(F)CCCCSc1nc2ccccc2s1` [Example 1, 2-(6,6,5-trifluorohex-5-enylthio)-benzothiazole] displayed a chromatographic logP in series [1] of 4.83. The “nematicidal action (activity) using gall formation as a measure” value in series [2] came to 100%. Also, the kill in series [3] worked out at 100%.

In the case of `O=S(=O)(CCCCC(F)=C(F)F)c1nc2ccccc2s1` [Example 3, 2-(6,6,5-trifluorohex-5-enylsulphonyl)-benzothiazole], the chromatographic logP in series [1] is 3.36. The “nematicidal action (activity) using gall formation as a measure” value in series [2] was 90%.

For `FC(F)=C(F)CCCCSc1ccc(-c2ccccc2Cl)nn1` [Example 16], the “logP (pH 2)” value in series [1] was 4.37.

For the compound `FC(F)=C(F)CCCCSc1nc2cc(SC(F)(F)F)ccc2o1` [Example 17], in series [1], the “logP (pH 2)” value is on record as 5.62.
